Experimental data taken from US11795460B2, “Compositions and methods for TTR gene editing and treating ATTR amyloidosis” (Intellia Therapeutics, Inc., priority 2017, dated 2023).

Tests used:
[1] = system: TTR; assay: TTR editing in primary human hepatocytes electroporated with Spy Cas9 protein loaded with dgRNAs (Table 7); type: cell-based; details: dgRNA electroporated with Spy Cas9 protein (RNP)
Outline: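 Primary human or cynomolgus hepatocytes electroporated (Lonza P3 buffer, program EX-147) with Spy Cas9 RNP carrying pre-annealed crRNA/trRNA dual guides. Genomic DNA harvested at 24, 48 or 72 h; target amplicons sequenced by Illumina MiSeq. Percent editing = reads with indels or substitutions over total reads.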

[2] = system: TTR; assay: TTR editing in HEK293_Cas9 cells transfected with dgRNAs (Table 4); type: cell-based, human; details: HEK293_Cas9 cells (constitutively express Spy Cas9) transfected with dgRNAs
Procedure: HEK293 Cas9 cell line. The human embryonic kidney adenocarcinoma cell line HEK293 constitutively expressing Spy Cas9 (“HEK293_Cas9”) was cultured in DMEM media supplemented with 10% fetal bovine serum and 500 μg/ml G418. Cells were plated at a density of 10,000 cells/well in a 96-well plate 24 hours prior to transfection. Cells were transfected with Lipofectamine RNAiMAX (ThermoFisher, Cat. 13778150) per the manufacturer's protocol. Cells were transfected with a lipoplex containing individual crRNA (25 nM), trRNA (25 nM), Lipofectamine RNAiMAX (0.3 μL/well) and OptiMem.
Transfected cells were harvested post-transfection at 24, 48, or 72 hours. The genomic DNA was extracted from each well of a 96-well plate using 50 μL/well BuccalAmp DNA Extraction solution (Epicentre, Cat. QE09050) per manufacturer's protocol. All DNA samples were subjected to PCR and subsequent NGS analyses, as described herein.
To quantitatively determine the efficiency of editing at the target location in the genome, sequencing was utilized to identify the presence of insertions and deletions introduced by gene editing.
Primers were designed around the target site within the gene of interest (e.g. TTR), and the genomic area of interest was amplified.
Additional PCR was performed per the manufacturer's protocols (Illumina) to add chemistry for sequencing. The amplicons were sequenced on an Illumina MiSeq instrument. The reads were aligned to a reference genome (e.g., the human reference genome (hg38), the cynomologus reference genome (mf5), the rat reference genome (rn6), or the mouse reference genome (mm10)) after eliminating those having low quality scores. The resulting files containing the reads were mapped to the reference genome (BAM files), where reads that overlapped the target region of interest were selected and the number of wild type reads versus the number of reads which contain an insertion, substitution, or deletion was calculated.
The editing percentage (e.g., the “editing efficiency” or “percent editing” or “indel frequency”) is defined as the total number of sequence reads with insertions/deletions (“indels”) or substitutions over the total number of sequence reads, including wild type.
Guides in dgRNA format targeting human TTR and the cynomologus matched sequences were delivered to HEK293 Cas9, HUH7 and HepG2 cell lines, as well as primary human hepatocytes and primary cynomolgus monkey hepatocytes as described in Example 1. Percent editing was determined for crRNAs comprising each guide sequence across each cell type and the guide sequences were then rank ordered based on highest % edit. The screening data for the guide sequences in Table 1 in all five cell lines are listed below (Table 4 through 11).

[3] = system: TTR; assay: TTR editing in primary human hepatocytes transfected with Spy Cas9 mRNA and dgRNAs (Table 9); type: cell-based; details: dgRNA co-transfected with Spy Cas9 mRNA (SEQ ID NO:2)
Outline: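 PHH sequentially lipofected with Spy Cas9 mRNA (100 ng), then crRNA plus tracrRNA (25 nM each) dual-guide lipoplex. Cells harvested 24, 48 or 72 h post-transfection; TTR target amplicons sequenced on Illumina MiSeq, editing given as percent reads with indels or substitutions over total reads.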

[4] = system: TTR; assay: TTR editing in primary human hepatocytes transfected with Spy Cas9 protein (RNP) loaded with dgRNAs (Table 8); type: cell-based; details: dgRNA transfected with Spy Cas9 protein (RNP)
Outline: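 Primary human hepatocytes were lipofected (RNAiMAX) with RNP of Spy Cas9 (10 nM) plus pre-annealed crRNA (10 nM) and trRNA (10 nM) and harvested 24, 48 or 72 h later. Target-site amplicons were sequenced on Illumina MiSeq and aligned to hg38; percent editing = reads with indels or substitutions over total reads.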

Sequence	Avg % Deletion [1]	Avg % Edit [1]	Avg % Insert [1]	Avg % Deletion [2]	Avg % Edit [2]	Avg % Insert [2]	Avg % Deletion [3]	Avg % Edit [3]	Avg % Insert [3]	Avg % Deletion [4]	Avg % Edit [4]	Avg % Insert [4]
UGUAGAAGGGAUAUACAAAG (tested as dual guide RNA, chemistry not given here) [CR003365]	6.83%	42.37%	35.57%	24.61%	36.43%	11.83%	6.67%	26.90%	20.23%	7.54%	47.78%	40.24%
AAAGUUCUAGAUGCUGUCCG (tested as dual guide RNA, chemistry not given here) [CR003346]	14.83%	35.67%	20.83%	15.30%	48.33%	33.03%	14.33%	19.97%	5.63%	1.84%	4.11%	2.27%
AAAUAGACACCAAAUCUUAC (tested as dual guide RNA, chemistry not given here) [CR003366]	3.10%	34.70%	31.63%	37.26%	47.36%	10.10%	4.07%	24.53%	20.47%	4.79%	42.74%	37.95%
GAAAGGCUGCUGAUGACACC (tested as dual guide RNA, chemistry not given here) [CR003352]	4.30%	29.83%	25.63%	22.99%	27.90%	4.91%	5.07%	16.80%	11.73%	3.21%	30.48%	27.27%
AAAGGCUGCUGAUGACACCU (tested as dual guide RNA, chemistry not given here) [CR003353]	2.63%	84.83%	82.23%	21.32%	25.03%	3.71%	4.43%	53.73%	49.50%	2.16%	61.54%	59.38%
CUGGUAUUUGUGUCUGAGGC (tested as dual guide RNA, chemistry not given here) [CR003341]	4.40%	11.43%	7.03%	13.31%	20.04%	6.73%	9.07%	15.83%	6.80%	5.02%	19.66%	14.64%
GCAUGGGCUCACAACUGAGG (tested as dual guide RNA, chemistry not given here) [CR003362]	0.20%	7.03%	6.87%	8.41%	9.90%	1.48%	0.47%	6.60%	6.17%	0.56%	11.65%	11.10%
CUGCUCCUCCUCUGCCUUGC (tested as dual guide RNA, chemistry not given here) [CR003335]	2.50%	72.20%	69.70%	21.87%	26.59%	4.73%	3.40%	36.43%	33.03%	1.63%	51.14%	49.51%
AGCCUUUCUGAACACAUGCA (tested as dual guide RNA, chemistry not given here) [CR003351]	20.97%	51.77%	30.83%	21.24%	49.67%	28.42%	16.37%	26.50%	10.20%	16.36%	40.28%	23.92%
AUGCAGCUCUCCAGACUCAC (tested as dual guide RNA, chemistry not given here) [CR003358]	0.80%	5.70%	4.93%	4.14%	5.44%	1.29%	1.17%	3.90%	2.73%	5.67%	31.62%	25.95%
CUCUGCAUGCUCAUGGAAUG (tested as dual guide RNA, chemistry not given here) [CR003369]	0.40%	3.67%	3.30%	24.04%	33.10%	9.06%	0.70%	1.60%	0.90%	1.31%	12.98%	11.67%
GCUGCAUGGGCUCACAACUG (tested as dual guide RNA, chemistry not given here) [CR003361]	0.37%	4.10%	3.73%	25.78%	34.45%	8.66%	0.87%	3.53%	2.73%	0.56%	13.08%	12.52%
UGAAUCCAAGUGUCCUCUGA (tested as dual guide RNA, chemistry not given here) [CR005303]	0.53%	53.57%	53.07%				0.50%	35.50%	35.00%	0.39%	36.45%	36.06%
ACGUGUCUUCUCUACACCCA (tested as dual guide RNA, chemistry not given here) [CR005302]	1.00%	61.10%	60.10%				1.13%	34.80%	33.67%	0.97%	48.29%	47.32%
GUCACAGAAACACUCACCGU (tested as dual guide RNA, chemistry not given here) [CR005301]	1.60%	25.37%	24.00%				1.40%	6.77%	5.47%	1.84%	31.37%	29.53%
